Measured values: patent publication US20240101572A1, “DIHYDROOXADIAZINONE COMPOUND AND PHARMACEUTICAL USE THEREOF” (Japan Tobacco Inc., priority 2022, published 2024)
pIC50: −log10 of the molar value. Read-outs that look alike come from different tables or passages of the source.

Assays:
full-length human PLD1 = full-length human PLD1 (Homo sapiens (Human), UniProt Q13393); test: Evaluation of human PLD1 enzyme inhibitory activity (Amplex Red / choline oxidase fluorescence); assay type: biochemical
In short: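 Fluorescence read-out couples choline to Amplex Red via choline oxidase and peroxidase after a 60 min room-temperature reaction. Enzyme: FLAG-tagged full-length human PLD1 from Expi293F cells, anti-FLAG purified; substrate diheptanoyl phosphatidylcholine; HEPES pH 7.5 assay buffer with 0.01% NP-40, 0.1% BSA, 5% DMSO final.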

full-length human PLD2 = full-length human PLD2 (Homo sapiens (Human), UniProt O14939); test: Evaluation of human PLD2 enzyme inhibitory activity (Amplex Red / choline oxidase fluorescence); assay type: biochemical
In short: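 Released choline was read by Amplex Red fluorescence coupled to choline oxidase and HRP after a 60 min room-temperature reaction. Substrate was diheptanoyl phosphatidylcholine, added as a 6 mmol/L solution, and enzyme was FLAG-tagged full-length human PLD2 from Expi293F, added as a 6 nmol/L solution. Buffer was 50 mM HEPES pH 7.5 with 5% final DMSO.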

[1] = full-length human PLD1 enzyme, read-out: PLD1 IC50
[2] = full-length human PLD2 enzyme, read-out: PLD2 IC50

Chain of full-length human PLD2 (O14939 whole entry): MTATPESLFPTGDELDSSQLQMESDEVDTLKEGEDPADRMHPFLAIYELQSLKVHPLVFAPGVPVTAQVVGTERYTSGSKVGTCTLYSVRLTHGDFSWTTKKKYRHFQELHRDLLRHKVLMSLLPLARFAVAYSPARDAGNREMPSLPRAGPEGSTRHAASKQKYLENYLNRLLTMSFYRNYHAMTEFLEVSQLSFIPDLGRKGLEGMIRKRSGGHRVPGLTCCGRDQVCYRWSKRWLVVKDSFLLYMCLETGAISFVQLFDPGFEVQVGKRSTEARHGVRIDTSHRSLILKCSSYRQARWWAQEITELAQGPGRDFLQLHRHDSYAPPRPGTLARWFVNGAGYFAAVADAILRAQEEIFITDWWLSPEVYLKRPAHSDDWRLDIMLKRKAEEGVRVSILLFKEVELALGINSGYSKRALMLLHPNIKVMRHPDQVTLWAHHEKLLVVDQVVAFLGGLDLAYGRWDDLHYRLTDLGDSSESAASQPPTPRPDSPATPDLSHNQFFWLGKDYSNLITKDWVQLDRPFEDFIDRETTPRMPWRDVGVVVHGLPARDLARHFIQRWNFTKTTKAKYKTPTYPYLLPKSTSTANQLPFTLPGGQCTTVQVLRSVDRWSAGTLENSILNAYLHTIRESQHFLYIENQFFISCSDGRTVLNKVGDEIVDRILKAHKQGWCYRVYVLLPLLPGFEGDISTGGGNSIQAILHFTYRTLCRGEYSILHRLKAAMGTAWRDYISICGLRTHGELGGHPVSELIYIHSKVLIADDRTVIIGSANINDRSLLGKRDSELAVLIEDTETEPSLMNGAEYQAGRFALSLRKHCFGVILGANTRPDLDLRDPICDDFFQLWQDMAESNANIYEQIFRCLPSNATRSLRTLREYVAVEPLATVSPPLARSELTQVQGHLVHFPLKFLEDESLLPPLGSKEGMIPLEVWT
Chain of full-length human PLD1 (Q13393 other isoform, or with tags, fused parts or gaps): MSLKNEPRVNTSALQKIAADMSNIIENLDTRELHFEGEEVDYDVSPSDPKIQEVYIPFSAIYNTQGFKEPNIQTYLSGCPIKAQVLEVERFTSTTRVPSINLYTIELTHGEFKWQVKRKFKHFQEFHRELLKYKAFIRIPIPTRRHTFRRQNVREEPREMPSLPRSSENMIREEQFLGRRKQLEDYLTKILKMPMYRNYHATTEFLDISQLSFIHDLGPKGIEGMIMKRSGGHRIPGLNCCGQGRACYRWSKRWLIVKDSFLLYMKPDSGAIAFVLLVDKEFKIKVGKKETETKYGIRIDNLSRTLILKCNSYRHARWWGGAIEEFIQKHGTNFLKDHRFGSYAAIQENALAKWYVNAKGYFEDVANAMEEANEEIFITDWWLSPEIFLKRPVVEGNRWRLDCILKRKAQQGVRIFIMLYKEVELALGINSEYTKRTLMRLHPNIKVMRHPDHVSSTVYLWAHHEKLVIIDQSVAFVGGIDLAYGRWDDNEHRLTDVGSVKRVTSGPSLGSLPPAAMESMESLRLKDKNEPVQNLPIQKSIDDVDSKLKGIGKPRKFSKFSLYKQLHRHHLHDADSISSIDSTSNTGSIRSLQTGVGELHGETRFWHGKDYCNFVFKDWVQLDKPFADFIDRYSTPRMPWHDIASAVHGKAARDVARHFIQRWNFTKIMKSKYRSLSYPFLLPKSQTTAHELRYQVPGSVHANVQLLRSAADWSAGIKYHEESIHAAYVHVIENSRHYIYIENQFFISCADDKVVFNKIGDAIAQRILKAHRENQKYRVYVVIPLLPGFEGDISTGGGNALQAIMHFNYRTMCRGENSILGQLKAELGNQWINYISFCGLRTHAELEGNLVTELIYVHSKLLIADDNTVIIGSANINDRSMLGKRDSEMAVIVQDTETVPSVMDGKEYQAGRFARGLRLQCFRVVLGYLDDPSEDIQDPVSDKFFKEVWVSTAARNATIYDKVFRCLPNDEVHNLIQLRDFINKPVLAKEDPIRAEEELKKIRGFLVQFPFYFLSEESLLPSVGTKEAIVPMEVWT

Row | Compound | pIC50 (full-length human PLD1; [1]) | pIC50 (full-length human PLD2; [2]) | other results
1 | CNC(=O)C(=O)N[C@@H](C)C[C@H]1CC[C@]2(CC1)OC(=O)NN=C2c1cnc(N2CCCCC2)cc1C [Example 166] | 7.72 | > 8.00 | 
2 | CNC(=O)C(=O)N[C@@H](C)C[C@H]1CC[C@]2(CC1)OC(=O)NN=C2c1cnc(N2CCC2)cc1C [Example 159] | 7.55 | > 8.00 | 
3 | Cc1cc(C(=O)N[C@@H](C)C[C@H]2CC[C@]3(CC2)OC(=O)NN=C3c2cccnc2)[nH]n1 [Example 16] | 6.03 | 6.01 | 
4 | CNC(=O)C(=O)N[C@@H](C)C[C@H]1CC[C@]2(CC1)OC(=O)NN=C2c1cnc(N2CCCC2)cc1C [Example 165] | 7.72 | > 8.00 | 
5 | CC(C)c1cc(F)ccc1C1=NNC(=O)O[C@]12CC[C@@H](C[C@H](C)NC(=O)c1cc(Cl)no1)CC2 [Example 134] | 7.68 | 7.52 | 
6 | CNC(=O)C(=O)N[C@@H](C)C[C@H]1CC[C@]2(CC1)OC(=O)NN=C2c1cnccc1C [Example 112] | 7.51 | 7.70 | 
7 | CNC(=O)C(=O)N[C@@H](C)C[C@H]1CC[C@]2(CC1)OC(=O)NN=C2c1cnc(N2C[C@@H]3C[C@H]2CO3)cc1C [Example 268] | 7.52 | > 8.00 | 
8 | C[C@@H](C[C@H]1CC[C@]2(CC1)OC(=O)NN=C2c1ccc(S(C)(=O)=O)cc1Cl)NC(=O)c1cc2cc(F)ccc2o1 [Example 117] | 7.68 | 7.74 | 
9 | CNC(=O)C(=O)N[C@@H](C)C[C@]1(C#N)CC[C@@]2(CC1)OC(=O)NN=C2c1cc(C(F)(F)F)ccc1Br [Example 2-066] | 7.82 | > 8.00 | 
10 | Cc1cc(C(=O)N[C@@H](C)CN2CCC3(CC2)OC(=O)NN=C3c2ccc(F)cc2Cl)no1 [Example 98] | 7.24 | 7.11 | 
11 | COc1cc(C)c(C2=NNC(=O)O[C@]23CC[C@@H](C[C@H](C)NC(=O)N2CCc4cccnc4C2)CC3)cn1 [Example 258] | 6.73 | 6.60 | 
12 | C[C@@H](C[C@H]1CC[C@]2(CC1)OC(=O)NN=C2c1cnc(C2CC2)cc1Cl)NC(=O)N1CCn2nccc2C1 [Example 277] | 7.77 | > 8.00 | 
13 | C[C@@H](CN1CCC2(CC1)OC(=O)NN=C2c1cc(C#N)ccc1Br)NC(=O)CCC(F)(F)F [Example 2-023] | 6.99 | 7.19 | 
14 | C[C@@H](C[C@H]1CC[C@]2(CC1)OC(=O)NN=C2c1cc(OC(F)(F)F)ccc1Br)NC(=O)C(=O)NC1CC1 [Example 295] | > 8.00 | > 8.00 | 
15 | CNC(=O)C(=O)N[C@@H](C)CN1CCC2(CC1)OC(=O)NN=C2c1cc(C(=O)N(C)C)ccc1Br [Example 2-038] | 7.22 | 7.96 | 
16 | C[C@@H](C[C@H]1CC[C@]2(CC1)OC(=O)NN=C2c1ccc(OC(F)F)cc1Br)NC(=O)c1ccn[nH]1 [Example 143] | 7.57 | 7.60 | 
17 | CNC(=O)C(=O)N[C@@H](C)C[C@H]1CC[C@]2(CC1)OC(=O)NN=C2c1cc(OC(F)F)ccc1C [Example 194] | > 8.00 | > 8.00 | 
18 | [2H]C([2H])([2H])NC(=O)C(=O)N[C@@H](C)C[C@]1(C#N)CC[C@@]2(CC1)OC(=O)NN=C2c1cccc(C(F)(F)F)c1Br [Example 2-118] |  |  | pIC50 (full-length human PLD1; column 1 of continuation tables 2-12 to 2-14, read-out: human PLD1 enzyme inhibitory activity IC50): 7.72; pIC50 (full-length human PLD2; column 2 of continuation tables 2-12 to 2-14, read-out: human PLD2 enzyme inhibitory activity IC50): > 8.00
19 | CNC(=O)C(=O)N[C@@H](C)CN1C[C@H]2CC[C@@H](C1)[C@@]21OC(=O)NN=C1c1ccc(F)cc1Cl [Example 196] | 7.57 | > 8.00 | 
20 | C[C@@H](C[C@H]1CC[C@]2(CC1)OC(=O)NN=C2c1ccc(OC(F)(F)F)cc1Br)NC(=O)c1cc(Cl)no1 [Example 81] | 7.92 | > 8.00 | 
21 | CNC(=O)C(=O)N[C@@H](C)C[C@H]1CC[C@]2(CC1)OC(=O)NN=C2c1ccc(C#N)cc1Br [Example 57, N^1—((S)-1-(cis-5-(2-bromo-4-cyanophenyl)-2-oxo-1-oxa-3,4-diazaspiro[5.5]undec-4-en-9-yl)propan-2-yl)-N^2-methyloxamide] | 7.80 | > 8.00 | 
22 | COc1cc(C)c(C2=NNC(=O)O[C@]23CC[C@@H](C[C@H](C)NC(=O)N2CCc4ncccc4C2)CC3)cn1 [Example 264] | 7.44 | > 8.00 | 
23 | C[C@@H](C[C@H]1CC[C@]2(CC1)OC(=O)NN=C2c1cc(OCC(F)(F)F)ccc1Br)NC(=O)C(=O)NC1CC1 [Example 297] | 7.89 | > 8.00 | 
24 | CNC(=O)C(=O)N[C@H](C)C[C@H]1CC[C@@]2(CC1)OC(=O)NN=C2c1cc(C#N)ccc1Br [Example 2-150] |  |  | inhibition at 10 µM (full-length human PLD1; read-out: human PLD1 % inhibition at 10 μM): 25%; inhibition at 10 µM (full-length human PLD1; read-out: inhibition rate of PLD1 at 10 μM compound): 25%; inhibition at 10 µM (full-length human PLD2; read-out: human PLD2 % inhibition at 10 μM): 30%; inhibition at 10 µM (full-length human PLD2; read-out: inhibition rate of PLD2 at 10 μM compound): 30%
25 | CNC(=O)C(=O)N[C@@H](C)C[C@H]1CC[C@]2(CC1)OC(=O)NN=C2c1cnc(N2CCOCC2)cc1C [Example 164] | 7.42 | > 8.00 | 
